Usually IC50 stands for the midpoint of a concentration-inhibition curve. The inhibition is how much of the control response was suppressed.

From ChEMBL document CHEMBL3813603, “Selective anti-malarial minor groove binders” (Bioorg Med Chem Lett, 2016) come the findings set out here.

Data set [1] relates to HEK293. The data set is described as follows: (§1) Cytotoxicity against HEK293 cells at 20 uM by alamar blue assay. As to conditions: human, hek293, 20 µM; call rule not given here. The class given is cell-based. A general note: Alamar Blue is a resazurin reagent that responds to reducing activity.
A short description of data set [2]: Therapeutic ratio of IC50 for HEK293 cells to IC50 for Plasmodium falciparum 3D7. The class given is cell-based. The settings on record: human, HEK293 cells versus Plasmodium falciparum 3D7; read-out: Ratio IC50.
Data set [3] concerns Plasmodium falciparum. The data set is described as follows: Antimalarial activity against Plasmodium falciparum 3D7 incubated for 72 hours by DAPI-staining based confocal imaging analysis. The data set is classed as functional, organism-based.
In data set [4] the test system is Plasmodium falciparum. In words: Antimalarial activity against Plasmodium falciparum Dd2 incubated for 72 hours by DAPI-staining based confocal imaging analysis. The data set is classed as functional, organism-based. The settings on record: Dd2, 72 h.
Data set [5] relates to HEK293. The data set is described as follows: Cytotoxicity against HEK293 cells by alamar blue assay. The class given is cell-based. The settings on record: Homo sapiens.
A short description of data set [6]: as §1. The data set is classed as cell-based. The settings on record: human, HEK293 cells; read-out: INH.
In data set [7] the test system is Plasmodium falciparum. The data set is described as follows: Antimalarial activity against Plasmodium falciparum 3D7 at 20 uM incubated for 72 hours by DAPI-staining based confocal imaging analysis. The data set is classed as functional. As to conditions: 3D7, 72 h.
Data set [8] has as its system Plasmodium falciparum. The data set is described as follows: Antimalarial activity against Plasmodium falciparum Dd2 at 20 uM incubated for 72 hours by DAPI-staining based confocal imaging analysis. The class given is functional. The settings on record: Dd2, 72 h.
The nature of data set [9]: Cytotoxicity against HEK293 cells at 10 uM by alamar blue assay. As to conditions: human, read-out: INH. The class given is cell-based.
Where [10] appears, read: Plasmodium falciparum, 3D7, 72 h, read-out: IC50.

Each structure is given as a SMILES string.

For `CC(C)CCc1sc(NC(=O)c2cc(NC(=O)c3ccc(/C=C/c4ccc5ccccc5c4)cc3)cn2C)nc1C(=O)NCCN1CCOCC1`, the Activity entry in data set [1] is given as “Non-toxic”. For the same compound, the selectivity ratio in [2] is greater than 50. Besides, the IC50 in [3] (setting [10]) was 390 nM; in [4] it was 588 nM.
Turning to `CCc1nc(N)nc(N)c1-c1ccc(Cl)cc1` [PYRIMETHAMINE], the selectivity ratio in data set [2] amounted to 955. Moreover, the figures for the IC50 in [3] (setting [10]), in [4] and in [5] were 8.45 nM, greater than 120 nM and 8070 nM, respectively.
With `Cn1cc(NC(=O)c2cc(NC(=O)c3cc(NC(=O)c4ccc(Cl)cc4Cl)cn3C)cn2C)cc1C(=O)NCCCN1CCOCC1`, the Activity result in [1] is “Non-toxic”. For the same compound, the results for the IC50 in [3] (setting [10]) and in data set [4] were 3040 nM and 3620 nM, respectively.
Taken in the same sequence, the figures for `Cn1cc(NC(=O)c2cc(NC(=O)c3cc(NC(=O)c4ccc(Cl)cc4Cl)cn3C)cn2C)cc1C(=O)NCCN1CCOCC1` were “Non-toxic”, 1800 nM and 3070 nM.
With `Cn1cc(NC(=O)c2cc(NC(=O)c3cc4ccccc4cn3)cn2C)cc1C(=O)NCCN1CCOCC1`, the Activity result in [1] was “Non-toxic”. The IC50 in [3] (setting [10]) is 4310 nM; in data set [4], 3270 nM.
Taken in the same sequence, the figures for `CC(=N)Nc1cc(C(=O)Nc2cc(C(=O)Nc3cc(C(=O)NCCCN(C)C)n(C)c3)n(C)c2)n(C)c1` were “Non-toxic”, 6420 nM and 6460 nM.
On to `CC(C)CCc1sc(NC(=O)c2cc(NC(=O)c3cc4ccccc4cn3)cn2C)nc1C(=O)NCCCN(C)C`, for which the Activity result in data set [1] was “Non-toxic”. Further, the IC50 was found to be 1410 nM in data set [3] (setting [10]) and 2000 nM in [4].
The matching figures for `CSc1ccc(/C=C/c2ccc3cc(C(=O)Nc4cc(C(=O)Nc5cc(C(=O)NCCN6CCOCC6)n(C)c5)n(C)c4)ccc3n2)cc1`: “Non-toxic”, 1770 nM and 1900 nM.
In the case of `Cn1cc(NC(=O)c2cc(NC(=O)c3ccc(/C=C/c4nc5ccccc5o4)cc3)cn2C)cc1C(=O)NCCN1CCOCC1`, in data set [1], the Activity result was “Non-toxic”. For the same compound, the selectivity ratio in [2] is greater than 514. Also, the IC50 in data set [3] (setting [10]) was determined as 39 nM; in [4], 38 nM.
Regarding `COc1ccc(C[C@H](N)C(=O)N[C@H]2[C@@H](O)[C@H](n3cnc4c(N(C)C)ncnc43)O[C@@H]2CO)cc1` [PUROMYCIN], the selectivity ratio in data set [2] came to 6. Also, the IC50 in data set [3] (setting [10]) is 60 nM; in data set [4] it was 62 nM.
For the compound `COc1cccc(/C=C/c2ccc(C(=O)Nc3cc(C(=O)Nc4nc(C(=O)NCCCN(C)C)c(CCC(C)C)s4)n(C)c3)cc2)c1`, the cytotoxicity at 20 µM in [6] worked out at 86%. The selectivity ratio in data set [2] was greater than 36. In addition, the figures for the IC50 in data set [3] (setting [10]) and in data set [4] were 544 nM and 1130 nM, respectively.
Take `Cn1cc(NC(=O)c2cc(NC(=O)c3ccc(/C=C/c4ccc(F)cc4)cc3)cn2C)cc1C(=O)NCCN1CCOCC1`: the Activity result in data set [1] was “Non-toxic”. In addition, the IC50 in data set [3] (setting [10]) is 3300 nM; in data set [4] it was 3340 nM.
Taken in the same sequence, the figures for `Cn1cc(NC(=O)c2cc(NC(=O)c3cc(NC(=O)c4cc5ccccc5cn4)cn3C)cn2C)cc1C(=O)NCCCN1CCOCC1` were “Non-toxic”, 7860 nM and 5990 nM.
For the compound `Cn1cc(NC(=O)c2cc(NC(=O)c3ccc(/C=C/c4ccc5nsnc5c4)cc3)cn2C)cc1C(=O)NCCN1CCOCC1`, in [1], the Activity result is on record as “Non-toxic”. Also, the IC50 in data set [3] (setting [10]) was 6040 nM; in data set [4], 5140 nM.
For `CC(C)CCc1sc(NC(=O)c2cc(NC(=O)c3cc(/C=C/c4ccc([N+](=O)[O-])cc4)cn3C)cn2C)nc1C(=O)NCCN1CCOCC1`, in data set [6], the cytotoxicity at 20 µM is 54%. Besides, the selectivity ratio in data set [2] was greater than 60. In addition, the IC50 in data set [3] (setting [10]) amounted to 322 nM; in data set [4] it was 289 nM.
Regarding `COc1ccnc(C(=N)Nc2cc(C(=O)Nc3cc(C(=O)Nc4nc(C(=O)NCCN5CCOCC5)c(C(C)C)s4)n(C)c3)n(C)c2)c1`, in [1], the Activity result was “Non-toxic”. Besides, the IC50 in data set [3] (setting [10]) amounted to 2730 nM; in data set [4], 2970 nM.
With `C[C@@H]1CC[C@H]2[C@@H](C)C(=O)O[C@@H]3O[C@@]4(C)CC[C@@H]1[C@]32OO4` [ARTEMISININ], the selectivity ratio in [2] is greater than 10000. Moreover, the IC50 in data set [4] is 9 nM; in [5], greater than 120000 nM.
Regarding `CC(C)CCc1sc(NC(=O)c2cc(NC(=O)c3ccc(/C=C/c4ccc5ccccc5n4)cc3)cn2C)nc1C(=O)NCCN1CCOCC1`, the Activity result in data set [1] is reported as “Non-toxic”. Moreover, the half-inhibitory concentration (IC50) in [3] (setting [10]) was 103 nM; in [4] it was 241 nM.
`CC(C)n1cc(NC(=O)c2cc(NC(=O)c3cnc(Cl)c(Cl)c3)cn2C)cc1C(=O)Nc1cc(C(=O)NCCCN(C)C)n(C)c1`: in data set [1], the Activity result is “Non-toxic”. Also, the results for the inhibition at 20 µM in data set [7] and in data set [8] were 75% and 65%, respectively.
For the compound `CN(C)CCCn1cnc(NC(=O)c2cc(NC(=O)c3cc(NC(=O)c4cc5ccccc5cn4)cn3C)cn2C)c1.O=C(O)C(F)(F)F`, in data set [1], the Activity entry is recorded as “Non-toxic”. For the same compound, the IC50 was determined as 5490 nM in data set [3] (setting [10]) and 4480 nM in data set [4].
In the case of `Cn1cc(NC(=O)c2cc(NC(=O)c3ccc(/C=C/c4cccc(F)c4)cc3)cn2C)cc1C(=O)NCCN1CCOCC1`, the Activity entry in data set [1] was “Non-toxic”. The IC50 was determined as 3320 nM in data set [3] (setting [10]) and 2750 nM in data set [4].
Take `COc1ccc(/C=C/c2ccc3cc(C(=O)Nc4cc(C(=O)Nc5cc(C(=O)NCCN6CCOCC6)n(C)c5)n(C)c4)ccc3n2)cc1`: in data set [1], the Activity result was “Non-toxic”. For the same compound, the IC50 in data set [3] (setting [10]) came out at 1950 nM; in [4] it was 2990 nM.
As for `COc1cccc(/C=C/c2cccc(C(=O)Nc3cc(C(=O)Nc4nc(C(=O)NCCCN(C)C)c(CCC(C)C)s4)n(C)c3)c2)c1`, the selectivity ratio in [2] came out at 6.7. Also, the IC50 in data set [3] (setting [10]) was 868 nM; in data set [4] it was 1150 nM; in data set [5] it was 5800 nM.
Turning to `CN(C)CCCNC(=O)c1cc(NC(=O)c2cc(NC(=O)c3cc4ccccc4cn3)cn2C)cn1C`, the Activity entry in [1] is given as “Non-toxic”. In addition, the figures for the half-inhibitory concentration (IC50) in [3] (setting [10]) and in data set [4] were 4700 nM and 4350 nM, respectively.
Turning to `CN(C)CCCNC(=O)c1cc(NC(=O)c2cc(NC(=O)c3cc(NC(=N)c4cc5ccccc5cn4)cn3C)cn2C)cn1C`, the cytotoxicity at 10 µM in data set [9] came out at 40%. Moreover, the IC50 was determined as 3380 nM in [3] (setting [10]) and 2770 nM in data set [4].
On to `CN(C)CCCNC(=O)c1cc(NC(=O)c2cc(NC(=O)c3cc(NC(=N)c4ccccc4)cn3C)cn2C)cn1C`, for which the Activity result in data set [1] is given as “Non-toxic”. For the same compound, the inhibition at 20 µM in data set [7] turned out to be 90%; in [8], 63%.
For `CC(C)c1sc(NC(=O)c2cc(NC(=O)c3cc(NC(=O)c4cc5ccccc5cn4)cn3C)cn2C)nc1C(=O)NCCN1CCOCC1`, the Activity entry in data set [1] is reported as “Non-toxic”. Besides, in data set [2], the selectivity ratio was greater than 42. The IC50 in [3] (setting [10]) was 469 nM; in [4], 636 nM.
Regarding `CC(C)CCc1sc(NC(=O)c2cc(NC(=O)c3cc(/C=C/c4ccc([N+](=O)[O-])cc4)cn3C)cn2C)nc1C(=O)NCCCN(C)C`, in data set [6], the cytotoxicity at 20 µM is 60%. Further, the selectivity ratio in data set [2] is greater than 14. Also, the results for the IC50 in [3] (setting [10]) and in data set [4] were 350 nM and 339 nM, respectively.
Consider `COc1cccc(C(=N)Nc2cc(C(=O)Nc3cc(C(=O)Nc4cc(C(=O)NCCCN5CCOCC5)n(C)c4)n(C)c3)n(C)c2)c1`, for which the Activity entry in data set [1] is reported as “Non-toxic”. In addition, in data set [3], the IC50 entry was “Not Active”. In [8], this compound returned an inhibition at 20 µM of 35%.
On to `CCN(CC)CCCC(C)Nc1ccnc2cc(Cl)ccc12` (configuration not stated) [CHLOROQUINE], for which the IC50 in data set [5] was greater than 120000 nM.
For the compound `COc1cccc(C(=N)Nc2cc(C(=O)Nc3cc(C(=O)Nc4cc(C(=O)NCCCN(C)C)n(C)c4)n(C(C)C)c3)n(C)c2)c1`, the Activity entry in [1] is “Non-toxic”. In [3] (setting [10]), the half-maximal inhibitory concentration (IC50) turned out to be 9980 nM. The compound also had an inhibition at 20 µM in [8] of 100%.
As to `Cn1cc(NC(=O)c2cc(NC(=O)c3ccc(/C=C/c4ccncc4)cc3)cn2C)cc1C(=O)NCCN1CCOCC1`, the cytotoxicity at 20 µM in [6] is 63%. The selectivity ratio in [2] was greater than 26. Further, the IC50 in [3] (setting [10]) came out at 780 nM; in data set [4], 923 nM.
Take `Cn1cc(NC(=O)c2cc(NC(=O)c3cc(NC=O)cn3C)cn2C)cc1C(=O)NCCN1CCOCC1`: the Activity entry in data set [1] was “Non-toxic”. The inhibition at 20 µM was 98% in data set [7] and 25% in data set [8].
In the case of `Cn1cc(NC(=O)c2cc(NC(=O)c3ccc(/C=C/c4ccc5nonc5c4)cc3)cn2C)cc1C(=O)NCCN1CCOCC1`, the Activity result in data set [1] is recorded as “Non-toxic”. Moreover, the IC50 in [3] (setting [10]) was 1930 nM; in [4], 2300 nM.
The matching figures for `Cn1cc(NC(=O)c2cc(NC(=O)c3ccc(/C=C/c4ccc(C(F)(F)F)cc4)cc3)cn2C)cc1C(=O)NCCN1CCOCC1`: “Non-toxic”, 3570 nM and 3690 nM.
